Laboratory results: US11505543B2, “4-oxo-3,4-dihydroquinazoline compounds as inhibitors of human immunodeficiency virus replication” (VIIV HEALTHCARE UK (NO.5) LIMITED, priority 2018, dated 2022)

Key:
[1] = Compound cytotoxicity, XTT-based colorimetric assay; format: cell-based; conditions: human, uninfected MT2 cells, day 4, XTT
Procedure, shortened: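 Run under the antiviral-assay protocol but without virus. Viability was read on day 4 and CC50 values were derived from the readout.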

[2] = test system: recombinant NL4-3 virus (nef section replaced with Renilla luciferase gene) in MT-2 cells; assay: HIV cell culture assay (antiviral activity, luciferase readout); format: cell-based; conditions: Renilla, NL43, MT-2 cells infected for 4-5 days with recombinant NL4-3 Renilla luciferase virus, serial dilutions of compound
Procedure, shortened: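 EC50 was derived by median-effect curve fitting of luciferase activity. The signal comes from MT-2 cells infected for 4–5 days with 293T-produced NL4-3 reporter virus, nef partly replaced by Renilla luciferase, in the presence of serially diluted compound.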

SMILES | CC50 at 4 day [1] | EC50 [2]
Cn1nc(NS(C)(=O)=O)c2c(Cl)ccc(-n3c([C@H](Cc4cc(F)cc(F)c4)NC(=O)Cn4nc(C(F)F)c5c4C(F)(F)[C@@H]4C[C@H]54)nc4cc(-c5ccccc5CO)ccc4c3=O)c21 (atropisomer, axis not shown; (aR)) [Example 116, N-((S)-1-(3-(4-chloro-1-methyl-3-(methylsulfonamido)-1H-indazol-7-yl)-7-(2-(hydroxymethyl)phenyl)-4-oxo-3,4-dihydroquinazolin-2-yl)-2-(3,5-difluorophenyl)ethyl)-2-((3bS,4aR)-3-(difluoromethyl)-5,5-difluoro-3b,4,4a,5-tetrahydro-1H-cyclopropa[3,4]cyclopenta[1,2-c]pyrazol-1-yl)acetamide] | > 500 nM | 0.14 nM
COc1ccnc(-c2ccc3c(=O)n(-c4ccc(Cl)c5c(NS(C)(=O)=O)nn(C)c45)c([C@H](Cc4cc(F)cc(F)c4)NC(=O)Cn4nc(C(F)F)c5c4C(F)(F)[C@@H]4C[C@H]54)nc3c2)n1 (atropisomer, axis not shown; (aR)) [Example 117, N-((S)-1-(3-(4-chloro-1-methyl-3-(methylsulfonamido)-1H-indazol-7-yl)-7-(4-methoxypyrimidin-2-yl)-4-oxo-3,4-dihydroquinazolin-2-yl)-2-(3,5-difluorophenyl)ethyl)-2-((3bS,4aR)-3-(difluoromethyl)-5,5-difluoro-3b,4,4a,5-tetrahydro-1H-cyclopropa[3,4]cyclopenta[1,2-c]pyrazol-1-yl)acetamide] | > 500 nM | 0.058 nM
Cn1nc(NS(C)(=O)=O)c2c(Cl)ccc(-n3c([C@H](Cc4cc(F)cc(F)c4)NC(=O)Cn4nc(C(F)F)c5c4C(F)(F)[C@@H]4C[C@H]54)nc4cc(-c5ccncc5)ccc4c3=O)c21 (atropisomer, axis not shown; (aR)) [Example 118, N-((S)-1-(3-(4-chloro-1-methyl-3-(methylsulfonamido)-1H-indazol-7-yl)-4-oxo-7-(pyridin-4-yl)-3,4-dihydroquinazolin-2-yl)-2-(3,5-difluorophenyl)ethyl)-2-((3bS,4aR)-3-(difluoromethyl)-5,5-difluoro-3b,4,4a,5-tetrahydro-1H-cyclopropa[3,4]cyclopenta[1,2-c]pyrazol-1-yl)acetamide] | > 500 nM | 0.16 nM
CCS(=O)(=O)c1ccccc1-c1ccc2c(=O)n(-c3ccc(Cl)c4c(NS(C)(=O)=O)nn(C)c34)c([C@H](Cc3cc(F)cc(F)c3)NC(=O)Cn3nc(C(F)F)c4c3C(F)(F)[C@@H]3C[C@H]43)nc2c1 (atropisomer, axis not shown; (aR)) [Example 119, N-((S)-1-(3-(4-chloro-1-methyl-3-(methylsulfonamido)-1H-indazol-7-yl)-7-(2-(ethylsulfonyl)phenyl)-4-oxo-3,4-dihydroquinazolin-2-yl)-2-(3,5-difluorophenyl)ethyl)-2-((3bS,4aR)-3-(difluoromethyl)-5,5-difluoro-3b,4,4a,5-tetrahydro-1H-cyclopropa[3,4]cyclopenta[1,2-c]pyrazol-1-yl)acetamide] | > 500 nM | 0.1 nM
CC(C)S(=O)(=O)c1ccccc1-c1ccc2c(=O)n(-c3ccc(Cl)c4c(NS(C)(=O)=O)nn(C)c34)c([C@H](Cc3cc(F)cc(F)c3)NC(=O)Cn3nc(C(F)F)c4c3C(F)(F)[C@@H]3C[C@H]43)nc2c1 (atropisomer, axis not shown; (aR)) [Example 120, N-((S)-1-(3-(4-chloro-1-methyl-3-(methylsulfonamido)-1H-indazol-7-yl)-7-(2-(isopropylsulfonyl)phenyl)-4-oxo-3,4-dihydroquinazolin-2-yl)-2-(3,5-difluorophenyl)ethyl)-2-((3bS,4aR)-3-(difluoromethyl)-5,5-difluoro-3b,4,4a,5-tetrahydro-1H-cyclopropa[3,4]cyclopenta[1,2-c]pyrazol-1-yl)acetamide] | > 500 nM | 0.13 nM
CCS(=O)(=O)c1cccc(-c2ccc3c(=O)n(-c4ccc(Cl)c5c(NS(C)(=O)=O)nn(C)c45)c([C@H](Cc4cc(F)cc(F)c4)NC(=O)Cn4nc(C(F)F)c5c4C(F)(F)[C@@H]4C[C@H]54)nc3c2)c1 (atropisomer, axis not shown; (aR)) [Example 121, N-((S)-1-(3-(4-chloro-1-methyl-3-(methylsulfonamido)-1H-indazol-7-yl)-7-(3-(ethylsulfonyl)phenyl)-4-oxo-3,4-dihydroquinazolin-2-yl)-2-(3,5-difluorophenyl)ethyl)-2-((3bS,4aR)-3-(difluoromethyl)-5,5-difluoro-3b,4,4a,5-tetrahydro-1H-cyclopropa[3,4]cyclopenta[1,2-c]pyrazol-1-yl)acetamide] | > 500 nM | 0.11 nM
CCCS(=O)(=O)c1cccc(-c2ccc3c(=O)n(-c4ccc(Cl)c5c(NS(C)(=O)=O)nn(C)c45)c([C@H](Cc4cc(F)cc(F)c4)NC(=O)Cn4nc(C(F)F)c5c4C(F)(F)[C@@H]4C[C@H]54)nc3c2)c1 (atropisomer, axis not shown; (aR)) [Example 122, N-((S)-1-(3-(4-chloro-1-methyl-3-(methylsulfonamido)-1H-indazol-7-yl)-4-oxo-7-(3-(propylsulfonyl)phenyl)-3,4-dihydroquinazolin-2-yl)-2-(3,5-difluorophenyl)ethyl)-2-((3bS,4aR)-3-(difluoromethyl)-5,5-difluoro-3b,4,4a,5-tetrahydro-1H-cyclopropa[3,4]cyclopenta[1,2-c]pyrazol-1-yl)acetamide] | > 500 nM | 0.17 nM
CC(C)S(=O)(=O)c1cccc(-c2ccc3c(=O)n(-c4ccc(Cl)c5c(NS(C)(=O)=O)nn(C)c45)c([C@H](Cc4cc(F)cc(F)c4)NC(=O)Cn4nc(C(F)F)c5c4C(F)(F)[C@@H]4C[C@H]54)nc3c2)c1 (atropisomer, axis not shown; (aR)) [Example 123, N-((S)-1-(3-(4-chloro-1-methyl-3-(methylsulfonamido)-1H-indazol-7-yl)-7-(3-(isopropylsulfonyl)phenyl)-4-oxo-3,4-dihydroquinazolin-2-yl)-2-(3,5-difluorophenyl)ethyl)-2-((3bS,4aR)-3-(difluoromethyl)-5,5-difluoro-3b,4,4a,5-tetrahydro-1H-cyclopropa[3,4]cyclopenta[1,2-c]pyrazol-1-yl)acetamide] | > 500 nM | 0.15 nM
CS(=O)(=O)Nc1nn(CC(F)F)c2c(-n3c([C@H](Cc4cc(F)cc(F)c4)NC(=O)Cn4nc(C(F)F)c5c4C(F)(F)[C@@H]4C[C@H]54)nc4cc(-c5ncccn5)ccc4c3=O)ccc(Cl)c12 (atropisomer, axis not shown; (aR)) [Example 124, N-((S)-1-(3-(4-chloro-1-(2,2-difluoroethyl)-3-(methylsulfonamido)-1H-indazol-7-yl)-4-oxo-7-(pyrimidin-2-yl)-3,4-dihydroquinazolin-2-yl)-2-(3,5-difluorophenyl)ethyl)-2-((3bS,4aR)-3-(difluoromethyl)-5,5-difluoro-3b,4,4a,5-tetrahydro-1H-cyclopropa[3,4]cyclopenta[1,2-c]pyrazol-1-yl)acetamide] | > 500 nM | 0.058 nM
Cc1nccnc1-c1ccc2c(=O)n(-c3ccc(Cl)c4c(NS(C)(=O)=O)nn(CC(F)F)c34)c([C@H](Cc3cc(F)cc(F)c3)NC(=O)Cn3nc(C(F)F)c4c3C(F)(F)[C@@H]3C[C@H]43)nc2c1 (atropisomer, axis not shown; (aR)) [Example 125, N-((S)-1-(3-(4-chloro-1-(2,2-difluoroethyl)-3-(methylsulfonamido)-1H-indazol-7-yl)-7-(3-methylpyrazin-2-yl)-4-oxo-3,4-dihydroquinazolin-2-yl)-2-(3,5-difluorophenyl)ethyl)-2-((3bS,4aR)-3-(difluoromethyl)-5,5-difluoro-3b,4,4a,5-tetrahydro-1H-cyclopropa[3,4]cyclopenta[1,2-c]pyrazol-1-yl)acetamide] | > 500 nM | 0.054 nM
Cc1nccnc1-c1ccc2c(=O)n(-c3ccc(Cl)c4c(NS(=O)(=O)C5CC5)nn(CC(F)F)c34)c([C@H](Cc3cc(F)cc(F)c3)NC(=O)Cn3nc(C(F)F)c4c3C(F)(F)[C@@H]3C[C@H]43)nc2c1 (atropisomer, axis not shown; (aR)) [Example 126, N-((S)-1-(3-(4-chloro-3-(cyclopropanesulfonamido)-1-(2,2-difluoroethyl)-1H-indazol-7-yl)-7-(3-methylpyrazin-2-yl)-4-oxo-3,4-dihydroquinazolin-2-yl)-2-(3,5-difluorophenyl)ethyl)-2-((3bS,4aR)-3-(difluoromethyl)-5,5-difluoro-3b,4,4a,5-tetrahydro-1H-cyclopropa[3,4]cyclopenta[1,2-c]pyrazol-1-yl)acetamide] | > 500 nM | 0.052 nM
O=C(Cn1nc(C(F)F)c2c1C(F)(F)[C@@H]1C[C@H]21)N[C@@H](Cc1cc(F)cc(F)c1)c1nc2cc(-c3ncccn3)ccc2c(=O)n1-c1ccc(Cl)c2c(NS(=O)(=O)C3CC3)nn(CC(F)F)c12 (atropisomer, axis not shown; (aR)) [Example 127, N-((S)-1-(3-(4-chloro-3-(cyclopropanesulfonamido)-1-(2,2-difluoroethyl)-1H-indazol-7-yl)-4-oxo-7-(pyrimidin-2-yl)-3,4-dihydroquinazolin-2-yl)-2-(3,5-difluorophenyl)ethyl)-2-((3bS,4aR)-3-(difluoromethyl)-5,5-difluoro-3b,4,4a,5-tetrahydro-1H-cyclopropa[3,4]cyclopenta[1,2-c]pyrazol-1-yl)acetamide] | > 500 nM | 0.059 nM
